PubChem BioAssay AID643 (Vanderbilt High Throughput Screening Facility, 2007)
Activity calls are given as the source filed them. The rule behind the calls is not given here.

These molecules were tested against Muscarinic acetylcholine receptor M4 (Mus musculus) (UniProt P32211) (assay: allosteric agonists of mouse M4 receptor, confirmation, cell-based (AID 643)). Conditions: HEK293 cells expressing M4, thallium flux fluorescence, 2 min; hits give high values.
Sequence of Muscarinic acetylcholine receptor M4 (Mus musculus) (P32211 whole entry, looked up): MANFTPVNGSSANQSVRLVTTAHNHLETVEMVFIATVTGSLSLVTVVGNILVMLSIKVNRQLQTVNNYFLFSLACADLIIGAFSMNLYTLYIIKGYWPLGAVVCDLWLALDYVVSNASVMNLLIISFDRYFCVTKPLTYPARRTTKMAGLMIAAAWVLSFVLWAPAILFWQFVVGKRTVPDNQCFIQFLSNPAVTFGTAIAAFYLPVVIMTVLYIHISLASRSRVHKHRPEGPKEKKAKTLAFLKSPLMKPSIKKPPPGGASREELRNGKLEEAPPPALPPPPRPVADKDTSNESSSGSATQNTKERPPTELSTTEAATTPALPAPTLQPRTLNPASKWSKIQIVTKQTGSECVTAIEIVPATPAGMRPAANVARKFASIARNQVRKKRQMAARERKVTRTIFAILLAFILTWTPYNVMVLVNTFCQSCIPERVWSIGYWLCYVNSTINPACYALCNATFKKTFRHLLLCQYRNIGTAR
In the case of O=c1oc2c3c4c(cc2c(C(F)(F)F)c1CCN1CCOCC1)CCCN4CCC3, the response slope is reported as 0.0204. With COc1ccc(-c2noc(CSc3nc4ccccc4c(=O)n3-c3ccccc3)n2)cc1OC the response slope was 0.00773. In the case of N#Cc1c(NC(=O)c2ccc(Br)o2)n(-c2ccccc2)c2nc3ccccc3nc12, the response slope is reported as 0.00921. For CC(=O)c1c(C)c2c(n1CCN(C)C)CCCC2, the response slope was 0.00747. Work on COc1cc(OC)cc(-c2nnc(Nc3nc4c(F)cccc4s3)o2)c1 yielded a response slope of 0.0119. Cc1nn(-c2ccc(Cl)cc2)c2sc(C(=O)N3CCN(c4ccccn4)CC3)cc12 was tested, and the response slope was 0.00468 (inactive). With CCCCN(CCCC)c1nc2ccccc2nc1C(C#N)C(=O)NCCCOC (stereo not given) the response slope was 0.00562 (inactive). With Cc1ccc(S(=O)(=O)/C(C#N)=C/c2c(N3CCN(C)CC3)nc3c(C)cccn3c2=O)cc1 the response slope was 0.00236 (inactive). For Cc1ccc(Cl)cc1N1CCN(C(=O)CN2C(=O)c3cccc4cccc2c34)CC1, the response slope was 0.00517 (inactive). Cc1c2ccncc2c(C)c2c1[nH]c1ccccc12 gave a response slope of 0.0125. With CCOC(=O)CC(=O)CSc1nc(-c2cccnc2)ccc1C#N the response slope was 0.00405 (inactive). In the case of Cc1ccccc1-n1nc(C)c2cc(C(=O)NCc3cccnc3)sc21, the response slope is reported as 0.00964. Cc1ccc(-c2nn(-c3ccccc3)cc2/C=C(\C#N)c2cccc(C#N)c2)o1 was tested, and the response slope was 0.0107. With CNS(=O)(=O)c1cccc(C(=O)OCC(=O)c2cc(C)n(-c3ccc4c(c3)OCO4)c2C)c1 the response slope was 0.00508 (inactive). COc1ccc(CCn2c(=N)c(C(=O)NCc3ccco3)cc3c(=O)n4ccccc4nc32)cc1 was tested, and the response slope was 0.000825 (inactive). For CCN(CC)C(=O)c1sc2nc(-c3cccs3)cc(-c3cccs3)c2c1N, the response slope was -0.000749 (inactive). C[C@H]1OC[C@@H](C[N+](C)(C)C)O1 gave a response slope of 0.0167. Cc1c(C#N)sc2nc(-c3ccccc3)nc(N3CCCC3)c12 gave a response slope of 0.0119. For CCOC(=O)c1cnn2c1[nH]c(=O)c1ccccc12, the response slope was 0.00865. In the case of CN(C)c1ccc(/C=C/C(O)=C2/C(=O)N(C)C3(C)CC2c2ccccc2O3)cc1 (stereo not given), the response slope is reported as 0.00464 (inactive). For CCOc1ccc(-n2c(O)c(C=Nc3ccc(N(CC)CC)cc3)c(=O)[nH]c2=O)cc1, the response slope was -0.00673 (inactive). In the case of Cc1csc(NC(=O)c2sc3nc(-c4cccs4)ccc3c2N)n1, the response slope is reported as 0.00327 (inactive). With CCOC(=O)C1=C[C@]2(CC)CCCN3CCc4c(n1c1ccccc41)[C@@H]32 the response slope was 0.00841. With O=C(Nc1nc(-c2ccc(S(=O)(=O)N3CCCC3)cc2)cs1)C1COc2ccccc2O1 (stereo not given) the response slope was 0.00604 (inactive). Work on Fc1cccc2sc(Nc3nnc(-c4ccco4)o3)nc12 yielded a response slope of 0.0206. For S=c1nc(C2CC2)[nH]c2ccccc12, the response slope was -0.00904 (inactive). For O=C(Nc1nc(=O)c2ccccc2s1)c1ccccc1, the response slope was 0.00981. COc1cc(/C=C/C(=O)CC(=O)/C=C/c2ccc(O)c(OC)c2)ccc1O gave a response slope of 0.00973. With CCc1cccc(NC(=O)Cn2cc3c(n2)CCCC3)c1 the response slope was 0.00695 (inactive). CCCCNC(=O)Nc1ccnn1C1CCCCC1 gave a response slope of 0.00873. In the case of CCN(CC)c1ccc2cc(-c3nc4ccccc4[nH]3)c(=O)oc2c1, the response slope is reported as 0.0191. With CCOc1ccccc1OCCCCN1CCCC1 the response slope was 0.0043 (inactive). Work on O=c1c2ccccc2nc(-c2cccc(Cl)c2)n1O yielded a response slope of 0.00746. C/C(CC1(O)C(=O)N(Cc2ccccc2)c2ccccc21)=N\O (stereo not given) showed a response slope of 0.00834. With CN(C)C(CNC(=O)Nc1cccc(Cl)c1)c1cccnc1 (stereo not given) the response slope was 0.00144 (inactive). With O=C(Nc1nc(-c2ccc(S(=O)(=O)N3CCCCCC3)cc2)cs1)c1cccs1 the response slope was 0.0142. CCOC(=O)c1cc(-c2nnc(-c3ccc(Oc4ccccc4)cc3)o2)c(C)nc1C was tested, and the response slope was 0.0113. CC(=O)OC(C)C[N+](C)(C)C (stereo not given) was tested, and the response slope was 0.00597 (inactive). With Cc1cccc2sc(NC(=O)Cn3cccc3)nc12 the response slope was 0.0102. O=C(O)c1cc(O)c2c(c1)C(=O)c1cccc(O)c1C2=O was tested, and the response slope was 0.00514 (inactive). In the case of CCCCCCc1cc2cc(-c3nnc(-c4ccccc4O)o3)c(=O)oc2cc1O, the response slope is reported as 0.0548. Molecule CCn1c(SC(C)C(=O)O)nc2sc3c(c2c1=O)CCC3 (stereo not given) has a response slope of 0.0132. Clc1ccccc1OCCCCn1ccnc1 was tested, and the response slope was 0.00392 (inactive). For Cc1ccc(CNC(=O)c2cc3c(=O)n4ccccc4nc3n(CC3CCCO3)c2=N)cc1 (stereo not given), the response slope was 0.00307 (inactive). With Cc1ccc(SCc2c(C#N)c3ccccc3n2C)cc1 the response slope was 0.00835.
